Assay results as given in ChEMBL document CHEMBL5465560, “Selectivity Literature for EUbOPEN Chemogenomic Library” (2024).

Experiments:
[1] = target: Calcium/calmodulin-dependent protein kinase type II subunit alpha (Homo sapiens, UniProt Q9UQM7); test: Selectivity interaction (Kinase screening (Upstate/Millipore)) EUB0000604a CAMK2A
[2] = target: T1, Phosphatidylinositol 4,5-bisphosphate 3-kinase catalytic subunit delta isoform (Homo sapiens) (UniProt O00329); test: Selectivity interaction (KinomeScan (DiscoverX)) EUB0000595a PIK3CD; conditions: at 10 µM
T1 sequence (whole entry): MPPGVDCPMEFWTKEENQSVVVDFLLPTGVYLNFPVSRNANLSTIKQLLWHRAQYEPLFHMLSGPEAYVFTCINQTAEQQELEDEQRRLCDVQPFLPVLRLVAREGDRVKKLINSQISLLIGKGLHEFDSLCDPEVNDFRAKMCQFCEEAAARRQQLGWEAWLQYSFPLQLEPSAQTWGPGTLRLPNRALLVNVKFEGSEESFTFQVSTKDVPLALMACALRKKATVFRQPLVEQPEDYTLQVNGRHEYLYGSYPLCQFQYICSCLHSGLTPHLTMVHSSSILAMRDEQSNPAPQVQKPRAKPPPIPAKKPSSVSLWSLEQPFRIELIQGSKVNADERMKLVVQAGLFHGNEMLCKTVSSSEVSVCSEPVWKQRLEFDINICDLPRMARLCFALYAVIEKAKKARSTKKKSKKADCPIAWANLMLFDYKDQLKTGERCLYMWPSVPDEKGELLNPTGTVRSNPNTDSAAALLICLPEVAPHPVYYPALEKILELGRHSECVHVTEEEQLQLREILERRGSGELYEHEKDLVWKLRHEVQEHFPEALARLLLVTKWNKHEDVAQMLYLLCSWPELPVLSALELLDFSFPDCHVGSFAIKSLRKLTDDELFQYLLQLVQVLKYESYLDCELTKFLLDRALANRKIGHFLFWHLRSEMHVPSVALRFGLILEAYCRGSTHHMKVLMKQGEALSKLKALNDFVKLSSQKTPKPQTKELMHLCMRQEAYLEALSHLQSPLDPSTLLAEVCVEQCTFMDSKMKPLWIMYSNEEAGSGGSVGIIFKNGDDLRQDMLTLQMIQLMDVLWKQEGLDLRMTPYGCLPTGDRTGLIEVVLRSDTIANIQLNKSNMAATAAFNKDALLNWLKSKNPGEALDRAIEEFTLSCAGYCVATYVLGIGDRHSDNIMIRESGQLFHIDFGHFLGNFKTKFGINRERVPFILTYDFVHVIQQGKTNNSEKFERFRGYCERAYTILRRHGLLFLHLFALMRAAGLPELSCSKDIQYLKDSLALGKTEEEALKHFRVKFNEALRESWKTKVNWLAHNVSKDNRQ

[3] = target: T2, G protein-coupled receptor kinase 3 (Homo sapiens) (UniProt P35626); test: Selectivity interaction (KinomeScan (DiscoverX)) EUB0000229b ADRBK2; conditions: at 10 µM
T2 sequence (whole entry): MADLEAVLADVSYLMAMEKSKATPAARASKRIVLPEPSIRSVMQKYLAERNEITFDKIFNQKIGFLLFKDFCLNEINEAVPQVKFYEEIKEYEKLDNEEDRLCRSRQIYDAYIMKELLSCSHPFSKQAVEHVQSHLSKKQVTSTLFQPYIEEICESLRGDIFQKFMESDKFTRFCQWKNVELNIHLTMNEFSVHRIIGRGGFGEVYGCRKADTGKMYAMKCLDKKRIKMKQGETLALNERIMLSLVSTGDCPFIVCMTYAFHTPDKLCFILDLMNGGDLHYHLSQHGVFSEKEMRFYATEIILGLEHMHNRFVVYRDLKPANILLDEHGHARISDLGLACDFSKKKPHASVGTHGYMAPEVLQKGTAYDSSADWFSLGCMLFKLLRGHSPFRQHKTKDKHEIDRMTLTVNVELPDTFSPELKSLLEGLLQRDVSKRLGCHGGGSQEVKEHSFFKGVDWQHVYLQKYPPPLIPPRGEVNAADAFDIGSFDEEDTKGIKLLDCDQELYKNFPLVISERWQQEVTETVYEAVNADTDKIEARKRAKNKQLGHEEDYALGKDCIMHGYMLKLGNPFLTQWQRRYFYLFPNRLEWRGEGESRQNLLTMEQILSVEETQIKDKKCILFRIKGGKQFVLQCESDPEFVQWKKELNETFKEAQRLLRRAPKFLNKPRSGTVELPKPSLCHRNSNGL

[4] = Selectivity interaction (KinomeScan (DiscoverX)) EUB0000045b PKNB
[5] = target: Tyrosine-protein kinase JAK1 (Homo sapiens, UniProt P23458); test: Selectivity interaction (KinomeScan (DiscoverX)) EUB0001619a JAK1; conditions: at 1 µM
[6] = target: Mitogen-activated protein kinase 10 (Homo sapiens, UniProt P53779); test: Selectivity interaction (KinomeScan (DiscoverX)) EUB0001619a MAPK10; conditions: at 1 µM
[7] = target: Tyrosine-protein kinase Lyn (Homo sapiens, UniProt P07948); test: Selectivity interaction (KinomeScan (DiscoverX)) EUB0000666a LYN; conditions: at 10 µM
Chain of Tyrosine-protein kinase Lyn (P07948 2-512 limits assumed): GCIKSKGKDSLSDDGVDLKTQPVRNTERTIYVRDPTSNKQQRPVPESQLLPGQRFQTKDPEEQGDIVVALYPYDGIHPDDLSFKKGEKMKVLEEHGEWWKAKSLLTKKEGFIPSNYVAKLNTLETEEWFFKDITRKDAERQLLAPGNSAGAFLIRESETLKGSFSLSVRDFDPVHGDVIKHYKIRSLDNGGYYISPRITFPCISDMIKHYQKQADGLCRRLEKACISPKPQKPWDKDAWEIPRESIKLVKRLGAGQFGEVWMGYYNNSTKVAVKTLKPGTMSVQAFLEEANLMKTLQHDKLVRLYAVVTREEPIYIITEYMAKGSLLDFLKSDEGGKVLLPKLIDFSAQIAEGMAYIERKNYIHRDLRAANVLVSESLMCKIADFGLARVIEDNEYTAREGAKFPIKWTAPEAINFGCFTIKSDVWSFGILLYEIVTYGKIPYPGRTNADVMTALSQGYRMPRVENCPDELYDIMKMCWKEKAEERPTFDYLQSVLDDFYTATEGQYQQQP

Chain of Tyrosine-protein kinase JAK1 (P23458 whole entry): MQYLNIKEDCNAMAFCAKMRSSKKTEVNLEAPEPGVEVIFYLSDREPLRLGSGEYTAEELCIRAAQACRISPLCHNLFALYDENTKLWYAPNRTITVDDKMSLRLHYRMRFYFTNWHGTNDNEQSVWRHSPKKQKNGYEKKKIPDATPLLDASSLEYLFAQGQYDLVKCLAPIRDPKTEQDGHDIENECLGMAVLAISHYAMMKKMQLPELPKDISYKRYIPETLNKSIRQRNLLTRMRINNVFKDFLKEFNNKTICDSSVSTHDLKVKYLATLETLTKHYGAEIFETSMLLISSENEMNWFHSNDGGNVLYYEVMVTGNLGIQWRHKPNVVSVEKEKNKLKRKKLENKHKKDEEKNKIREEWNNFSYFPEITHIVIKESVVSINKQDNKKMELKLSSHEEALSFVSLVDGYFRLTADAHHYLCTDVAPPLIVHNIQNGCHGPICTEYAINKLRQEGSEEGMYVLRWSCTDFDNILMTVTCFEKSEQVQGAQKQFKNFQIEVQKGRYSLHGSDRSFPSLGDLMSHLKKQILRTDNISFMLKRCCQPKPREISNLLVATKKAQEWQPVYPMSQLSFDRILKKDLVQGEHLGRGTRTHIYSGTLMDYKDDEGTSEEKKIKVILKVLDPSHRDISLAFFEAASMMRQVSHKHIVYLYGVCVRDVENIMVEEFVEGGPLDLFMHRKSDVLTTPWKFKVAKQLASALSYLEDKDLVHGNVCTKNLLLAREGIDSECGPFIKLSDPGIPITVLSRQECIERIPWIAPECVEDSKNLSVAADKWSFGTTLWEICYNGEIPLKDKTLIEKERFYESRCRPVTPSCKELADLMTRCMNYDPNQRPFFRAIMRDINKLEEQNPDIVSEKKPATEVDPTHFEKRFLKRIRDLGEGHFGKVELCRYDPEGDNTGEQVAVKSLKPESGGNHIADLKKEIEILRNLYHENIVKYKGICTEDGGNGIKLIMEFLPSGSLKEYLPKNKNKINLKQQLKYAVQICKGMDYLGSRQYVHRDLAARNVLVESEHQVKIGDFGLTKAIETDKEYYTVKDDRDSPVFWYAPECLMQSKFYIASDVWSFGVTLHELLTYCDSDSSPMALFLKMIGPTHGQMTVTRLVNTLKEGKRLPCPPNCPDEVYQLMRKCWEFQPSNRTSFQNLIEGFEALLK
Chain of Mitogen-activated protein kinase 10 (P53779 whole entry): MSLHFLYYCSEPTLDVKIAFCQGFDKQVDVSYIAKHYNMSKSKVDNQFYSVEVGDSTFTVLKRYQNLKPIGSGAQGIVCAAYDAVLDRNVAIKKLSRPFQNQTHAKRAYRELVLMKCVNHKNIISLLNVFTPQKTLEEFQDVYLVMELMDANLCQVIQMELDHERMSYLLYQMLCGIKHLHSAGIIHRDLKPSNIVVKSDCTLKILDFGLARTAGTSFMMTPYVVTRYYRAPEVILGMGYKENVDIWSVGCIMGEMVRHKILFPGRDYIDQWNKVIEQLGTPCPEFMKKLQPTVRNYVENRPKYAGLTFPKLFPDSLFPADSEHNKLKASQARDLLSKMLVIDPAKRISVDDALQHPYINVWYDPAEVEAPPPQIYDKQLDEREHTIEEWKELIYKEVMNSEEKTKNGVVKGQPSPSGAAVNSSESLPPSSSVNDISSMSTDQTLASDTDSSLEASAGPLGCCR
Chain of Calcium/calmodulin-dependent protein kinase type II subunit alpha (Q9UQM7 whole entry, canonical isoform): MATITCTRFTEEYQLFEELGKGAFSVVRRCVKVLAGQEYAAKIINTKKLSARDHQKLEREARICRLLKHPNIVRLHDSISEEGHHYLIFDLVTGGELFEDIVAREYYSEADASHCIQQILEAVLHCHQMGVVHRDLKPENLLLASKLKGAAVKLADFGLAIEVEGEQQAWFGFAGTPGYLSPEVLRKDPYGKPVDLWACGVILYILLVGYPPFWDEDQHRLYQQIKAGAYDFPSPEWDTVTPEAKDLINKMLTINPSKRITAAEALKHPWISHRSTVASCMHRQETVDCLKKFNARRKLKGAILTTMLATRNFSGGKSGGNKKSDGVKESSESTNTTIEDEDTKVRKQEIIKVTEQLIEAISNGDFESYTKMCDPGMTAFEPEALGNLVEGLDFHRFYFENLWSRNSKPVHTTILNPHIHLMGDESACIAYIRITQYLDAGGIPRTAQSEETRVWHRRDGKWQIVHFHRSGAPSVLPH

SMILES: Cc1cnc(Nc2ccc(F)cc2Cl)nc1-c1c[nH]c(C(=O)N[C@H](CO)c2cccc(Cl)c2)c1
- % of inhibition [1]: 1%

SMILES: COCC(=O)NC/C=C/c1ccc2ncnc(Nc3ccc(Oc4ccc(C)nc4)c(C)c3)c2c1 [CP-724714]
- % of control [2]: 100%

SMILES: COc1cc(N(C)c2ccnc3ccc(C(F)(F)F)cc23)cc(OC)c1OC
- % binding [3]: 43%

SMILES: C=CC(=O)Nc1cc(-n2c(=O)ccc3cnc4ccc(-c5ccc(NS(C)(=O)=O)cc5)cc4c32)ccc1C
- % of control ([4]; at 1 µM): 41%
- % of control ([4]; at 10 µM): 90%

SMILES: N#Cc1cccc(-c2c[nH]c3ncnc(N4CCOCC4)c23)c1
- % of control [5]: 100%
- % of control [6]: 100%

SMILES: O=C(NOC[C@H](O)CO)c1ccc(F)c(F)c1Nc1ccc(I)cc1F
- % of control [7]: 72%
